Reference: patent US5981551A, “2,5-diimino-3a,6a-diaryl-1,2,3,3a,4,5,6,6a-octahydroim idazo[4,5-d]imidazoles which are effective as G-CSF mimetics” (SmithKline Beecham Corporation, priority 1998, dated 1999)
Counter-ions that a name gives are not always drawn.

Target: T1, G-CSF receptor (Mus musculus, UniProt P40223)
T1 construct: NSF60 cells express endogenous G-CSF receptors; endogenous in cells; host or cells: NFS60 cells
T1 sequence (P40223 26-837): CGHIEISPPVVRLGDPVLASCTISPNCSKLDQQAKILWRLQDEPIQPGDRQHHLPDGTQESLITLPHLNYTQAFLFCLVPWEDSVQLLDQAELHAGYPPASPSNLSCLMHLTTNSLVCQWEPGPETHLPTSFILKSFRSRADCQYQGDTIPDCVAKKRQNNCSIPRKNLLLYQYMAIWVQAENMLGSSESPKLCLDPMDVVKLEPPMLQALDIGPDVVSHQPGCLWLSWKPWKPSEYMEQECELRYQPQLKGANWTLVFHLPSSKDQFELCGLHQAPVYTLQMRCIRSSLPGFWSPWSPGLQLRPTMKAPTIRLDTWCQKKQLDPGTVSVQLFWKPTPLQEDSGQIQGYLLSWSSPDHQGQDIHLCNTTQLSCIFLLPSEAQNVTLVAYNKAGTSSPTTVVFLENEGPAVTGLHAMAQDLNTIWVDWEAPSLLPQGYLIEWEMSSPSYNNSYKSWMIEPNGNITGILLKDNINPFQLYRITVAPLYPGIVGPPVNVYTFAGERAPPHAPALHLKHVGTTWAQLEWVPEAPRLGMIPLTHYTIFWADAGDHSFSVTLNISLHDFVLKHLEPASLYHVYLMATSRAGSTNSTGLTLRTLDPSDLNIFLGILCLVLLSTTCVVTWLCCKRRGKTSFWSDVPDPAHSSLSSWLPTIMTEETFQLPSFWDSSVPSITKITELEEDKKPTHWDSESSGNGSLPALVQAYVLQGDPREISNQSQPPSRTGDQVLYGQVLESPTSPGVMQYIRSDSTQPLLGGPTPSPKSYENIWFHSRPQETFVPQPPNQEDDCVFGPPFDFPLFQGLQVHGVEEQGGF
Assay: Luciferase assay in NFS60 cells (G-CSF mimetic potency)
Format: cell-based
Conditions: concentration range of 1 to 32 uM
From the text: Luciferase Assay […] Natl. Acad. Sci., USA 92: 3041-3045 (1995) by substituting NFS60 cells for the HepG2 cells utilized therein. The NFS60 cells (Holmes, et al., Proc. Natl. Acad. Sci. USA 82: 6687-6691 (1985)) were substituted for the HepG2 cells in the Lamb assay because the NSF60 cells express endogenous G-CSF receptors closely matching the pattern of STAT (signal transducers and activators of transcription) activation observed in primary murine and human bone marrow cells.

| SMILES | activation, % of control, in the luciferase assay |
| --- | --- |
| c1ccc(C23NC(=Nc4nc5ccccc5[nH]4)NC2(c2ccccc2)NC(=Nc2nc4ccccc4[nH]2)N3)cc1 (stereo not drawn) [Example 2] | above 150 % of control |
| Cc1csc(N=C2NC3(c4ccccn4)NC(=Nc4nc(C)cs4)NC3(c3ccccn3)N2)n1 (stereo not drawn) [Example 13, 2,5-bis[(4-methyl-2-thiazolyl)imino]-3a,6a-bis(2-pyridyl)-1,2,3,3a,4,5,6a-octahydroimidazo[4,5-d]imidazole] | above 150 % of control |
| c1ccc(C23NC(=Nc4nc5ccccc5o4)NC2(c2ccccn2)NC(=Nc2nc4ccccc4o2)N3)nc1 (stereo not drawn) [Example 14, 2,5-bis[2-benzoxazolylimino]-3a,6a-bis(2-pyridyl)-1,2,3a,4,5,6,6a-octahydroimidazo[4,5-d]imidazole] | ≤ 150 % of control |
| Brc1ccc(C23NC(=Nc4nc5ccccc5[nH]4)NC2(c2ccc(Br)cc2)NC(=Nc2nc4ccccc4[nH]2)N3)cc1 (stereo not drawn) [Example 33, 2,5-bis[2-benzimidazolylimino]-3a,6a-bis(4-bromophenyl)-1,2,3,3a,4,5,6,6a-octahydroimidazo[4,5-d]imidazole] | ≤ 150 % of control |
| FC(F)(F)c1ccc(C23NC(=Nc4nc5ccccc5[nH]4)NC2(c2ccc(C(F)(F)F)cc2)NC(=Nc2nc4ccccc4[nH]2)N3)cc1 (stereo not drawn) [Example 34, 2,5-bis[2-benzimidazolylimino]-3a,6a-bis(4-trifluoromethylphenyl)-1,2,3,3a,4,5,6,6a-octahydroimidazo[4,5-d]imidazole] | above 150 % of control |
| Clc1cccc(C23NC(=Nc4nc5ccccc5[nH]4)NC2(c2ccccc2)NC(=Nc2nc4ccccc4[nH]2)N3)c1 (stereo not drawn) [Example 35, 2,5-bis[2-benzimidazolylimino]-3a-(3-chlorophenyl)-6a-phenyl-1,2,3,3a,4,5,6,6a-octahydroimidazo[4,5-d]imidazole] | above 150 % of control |
| Clc1ccccc1C12NC(=Nc3nc4ccccc4[nH]3)NC1(c1ccccc1)NC(=Nc1nc3ccccc3[nH]1)N2 (stereo not drawn) [Example 36, 2,5-bis[2-benzimidazolylimino]-3a-(2-chlorophenyl)-6a-phenyl-1,2,3,3a,4,5,6,6a-octahydroimidazo[4,5-d]imidazole] | ≤ 150 % of control |
| Cn1c(N=C2NC3(c4ccccc4)NC(=Nc4nc5ccccc5n4C)NC3(c3ccccc3)N2)nc2ccccc21 (stereo not drawn) [Example 38, 2,5-bis[(1-methyl-2-benzimidazolyl)imino]-3a,6a-diphenyl-1,2,3,3a,4,5,6,6a-octahydromidazo[4,5-d]imidazole] | ≤ 150 % of control |
| Cc1ccc(C23NC(=Nc4nc5ccccc5n4C)NC2(c2ccc(C)cc2)NC(=Nc2nc4ccccc4n2C)N3)cc1 (stereo not drawn) [Example 39, 2,5-bis[(1-methyl-2-benzimidazolyl)imino]-3a,6a-bis(4-methylphenyl)-1,2,3,3a,4,5,6,6a-octahydromidazo[4,5-d]imidazole] | above 150 % of control |
| Cn1c(N=C2NC3(c4ccc(Br)cc4)NC(=Nc4nc5ccccc5n4C)NC3(c3ccc(Br)cc3)N2)nc2ccccc21 (stereo not drawn) [Example 40, 2,5-bis[(1-methyl-2-benzimidazolyl)imino]-3a,6a-bis(4-bromophenyl)-1,2,3,3a,4,5,6,6a-octahydromidazo[4,5-d]imidazole] | ≤ 150 % of control |

Results, then the compound that gave them:

| activation, % of control, in the luciferase assay | SMILES |
| --- | --- |
| above 150 % of control | c1ccc(C23NC(=Nc4nc5ccccc5[nH]4)NC2(c2ccccn2)NC(=Nc2nc4ccccc4[nH]2)N3)nc1 (stereo not drawn) [Example 1] |
| ≤ 150 % of control | c1coc(C23NC(=Nc4nc5ccccc5[nH]4)NC2(c2ccco2)NC(=Nc2nc4ccccc4[nH]2)N3)c1 (stereo not drawn) [Example 3, 2,5-bis[2-benzimidazolylimino]-3a,6a-bis(2-furyl)-1,2,3,3a,4,5,6,6a-bis(2-pyridyl)octahydroimidazo[4.5-d]imidazole] |
| ≤ 150 % of control | Fc1ccc2nc(N=C3NC4(c5ccccn5)NC(=Nc5nc6ccccc6[nH]5)NC4(c4ccccn4)N3)[nH]c2c1.O=C(O)C(F)(F)F.O=C(O)C(F)(F)F (stereo not drawn) [Example 19, 5-(2-benzimidazolylimino)-2-[(5-fluoro-2-benzimidazolyl)imino]-3a,6a-bis(2-pyridyl)-1,2,3,3a,4,5,6,6a-octahydroimidazo[4,5-d]imidazole bis(trifluoroacetate) salt] |
| above 150 % of control | Fc1ccc2nc(N=C3NC4(c5ccccn5)NC(=Nc5nc6ccc(F)cc6[nH]5)NC4(c4ccccn4)N3)[nH]c2c1 (stereo not drawn) [Example 20, 2,5-bis[(5-fluoro-2-benzimidazolyl)imino]-3a,6a-bis(2-pyridyl-1,2,3,3a4,5,6,6a-octahydroimidazo[4,5-d]imidazolebis(trifluoroacetate) salt] |
| above 150 % of control | Cc1cc2nc(N=C3NC4(c5ccccn5)NC(=Nc5nc6cc(C)c(C)cc6[nH]5)NC4(c4ccccn4)N3)[nH]c2cc1C (stereo not drawn) [Example 25, 2,5-bis[(5.6-dimethyl-2-benzimidazolyl)imino]-3a,6a-bis(2-pyridyl)-1,2,2a,4,5,6,6a-octahydroimidazo[4,5-d]imidazole bis(trifluoroacetate) salt] |
| above 150 % of control | Cc1cc2nc(N=C3NC4(c5ccccn5)NC(=Nc5nc6ccccc6[nH]5)NC4(c4ccccn4)N3)[nH]c2cc1C (stereo not drawn) [Example 26, 5-[2-benzimidazolylimino]-2-[(5,6-dimethyl-2-benzimidazolyl)imino]-3a,6a-bis(2-pyridyl)-1,2,2a,4,5,6,6a-octahydroimidazo[4,5-d]imidazole bis(trifluoroacetate) salt] |
| above 150 % of control | c1ccc(C23NC(=Nc4nc5ccccc5[nH]4)NC2(c2ccccn2)NC(=Nc2nc4ccccc4s2)N3)nc1 (stereo not drawn) [Example 30, 5-[2-benzimidazolylimino]-2-[2-benzothiazolylimino]-3a,6a-bis(2-pyridyl)-1,2,3a,4,5,6,6a-octahydroimidazo[4,5-d]imidazole bis(trifluoroacetate)] |
| ≤ 150 % of control | O=C(O)c1ccc2nc(N=C3NC4(c5ccccn5)NC(=Nc5nc6ccccc6[nH]5)NC4(c4ccccn4)N3)[nH]c2c1 (stereo not drawn) [Example 31, 5-[(2-benzimidazolylimino]1-2-[(5-carboxy-2-benzimidazolyl)imino]-3a,6a-bis(2-pyridyl)-1,2,3,3a,4,5,6,6a-octahydroimidazo[4,5-d]imidazolebis(trifluoroacetate) salt] |
| ≤ 150 % of control | Ic1ccc2nc(N=C3NC4(c5ccccn5)NC(=Nc5nc6ccc(I)cc6[nH]5)NC4(c4ccccn4)N3)[nH]c2c1.O=C(O)C(F)(F)F.O=C(O)C(F)(F)F (stereo not drawn) [Example 32a, 2,5-bis[(5-iodo-2-benzimidazolyl)imino]-3a,6a-bis(2-pyridyl)-1,2,3,3a,4,5,6,6a-octahydroimidazo[4,5-d]imidazole bis(trifluoroacetate) salt] |
| above 150 % of control | Ic1ccc2nc(N=C3NC4(c5ccccn5)NC(=Nc5nc6ccccc6[nH]5)NC4(c4ccccn4)N3)[nH]c2c1 (stereo not drawn) [Example 32b, 5-[2-benzimidazolylimino]-2-[(5-iodo-2-benzimidazolyl)imino]-3a,6a-bis(2-pyridyl)-1,2,2a,4,5,6,6a-octahydroimidazo[4,5-d]imidazole bis(trifluoroacetate) salt] |
| above 150 % of control | Cc1ccc2nc(N=C3NC4(c5ccccc5)NC(=Nc5nc6ccccc6[nH]5)NC4(c4ccccn4)N3)[nH]c2c1.O=C(O)C(F)(F)F.O=C(O)C(F)(F)F (stereo not drawn) [Example 37, 5-(2-benzimidazolylimino)-2-[(5-methyl-2-benzimidazolyl)imino]-3a-(2-pyridyl)-6a-phenyl-1,2,3,3a,4,5,6,6a-octahydroimidazo[4,5-d]imidazole bis(trifluoroacetate) salt] |
